Laboratory results taken from patent EP0412158A1, “ONCOSTATIC DRUG” (priority 1987, dated 1988).
Values joined by “and” are separate entries in the source; they are usually repeats but may differ in a detail not shown here. Equal entries are not always repeated. Marks after values point to notes of the source that are not given here.

Legend:
[1] = system: methyl cholanthrene A tumor; assay: Antineoplastic activity against transplanted methyl cholanthrene A tumor, evaluation by size of tumor (Examples 1 to 6); format: in vivo, female BALB/C mice; conditions: No. 3, ip×9; for Change in body weight: body weight 13 days after transplantation; for T/control: tumor weight
Procedure: By dissolving alkylammonium salt of polymolybdic acid [NH3C3H7(iso)]s [Mo7O24] • 3H2O (Compound A) and other compounds (Compounds B to D) severally in distilled water, aqueous solutions containing the compounds in a fixed concentration of 10 mg/ml were obtained. These aqueous solutions were administered to female BALB/C mice (five weeks old) to which methyl cholanthrene A tumor had been transplanted to test the compounds for antineoplastic activity. To be specific, methyl cholanthrene A was transplanted to the mice in a ratio of 1.0 x 10^5 cells per mouse and the aqueous solutions were continuously administered to the mice by intraperitoneal injection ([…]) for nine days. On elapse of 14 days following the start of the administration, the tumors in the mice were measured. For comparison, mice to which no antineoplastic .drug was administered and mice to which aminonitroso urea was administered were tested by following the procedure described above.

methyl cholanthrene A [2] = assay: Methyl cholanthrene A tumor, evaluation by extension of period of survival (Examples 7 to 11); format: in vivo, female BALB/C mice; conditions: No. 2; for Average number of days of survival / Number of toxically killed mice/total number of mice / T/control: ip×9; for Change in body weight: ip×9, D1~D9; for T/control: days of survival
Procedure: The aforementioned compounds, A to D, were severally dissolved in distilled water to obtain aqueous solutions containing the compounds in a fixed concentration of 10 mg/ml. To the female BALB/C mice (five weeks old) to which methyl cholanthrene A had been transplanted in a ratio of 1.0 x 10^5 cells per mouse, […] to determine the mices' periods of survival. For comparison, mice to which no antineoplastic drug was administered and mice to which aminonitroso urea was administered were similarly tested.

[3] = system: methyl cholanthrene A tumor; assay: Methyl cholanthrene A tumor, evaluation by size of tumor (Examples 31 to 33); format: in vivo, female BALB/C mice; design: Average weight of tumor ± SE / Range of average tumor weight after elapse of 21 days ± SE: unit not given here; conditions: 25 mg/kg, ip × 9; for Average weight of tumor ± SE: after elapse of 14 days
Procedure: A heteropoly acid salt, Na5[IM06O24]•34H2O (Compound M), and other compounds (Compounds N and O ) were severally dissolved in distilled water to obtain aqueous solutions containing the salts in a fixed concentration of 10 mg/ml. To female BALB/C mice (five weeks old) to which methyl cholanthrene A tumor had been transplanted, the aqueous solutions were administered to test the compounds for antineoplastic activity. To be specific, the methyl cholanthrene A was transplanted to the mice at a ratio of 1.0 x 10^5 cells per mouse and the aqueous solutions were administered ([…]) for 9 consecutive days by intraperitoneal injection. On elapse of 14 and 21 days after the stop of the administration, the sizes of tumors in the mice were measured. For comparison, mice to which no aqueous solution was administered and mice to which aminonitrosourea was administered were similarly tested.

methyl cholanthrene A [4] = assay: Methyl cholanthrene A tumor, evaluation by elongation of period of survival (Examples 31, 34 and 35); format: in vivo, female BALB/C mice; conditions: for Average number of days of survival ±SE / ILS / Number of mice of no tumor/total number of mice: 25 mg/kg, ip × 9; for Number of mice of no tumor/total number of mice: observed 60 days after transplantation; for Change in body weight after elapse of 10 days: mouse, in vivo
Procedure: The active compounds, M to 0, mentioned above were severally dissolved in distilled water to obtain aqueous solutions containing the compounds in a fixed concentration of 10 mg/ml. To be specific, to female BALB/C mice (five weeks old) to which methyl cholanthrene A had been transplanted in a ratio of 1.0 x 10^5 cells per mouse, […] for 9 consecutive days to determine the mice's periods of survival. For comparison, mice to which no aqueous solution was administered and mice to which aminonitrosourea was administered were similarly tested.

MM-46 breast cancer [5] = assay: MM-46 breast cancer, evaluation by size of tumor (Examples 21 to 24); format: in vivo, female C3H/He mice; conditions: 100 mg/kg
Procedure: A polymolybdate, K6[Mo7022(02)2]8H20 (Compound I), and the aforementioned other compounds (Compounds J to L) were severally dissolved in distilled water to obtain aqueous solutions containing the compounds in a fixed concentration of 10 mg/mi. To female C3H/He mice (five weeks old) to which MM-46 breast cancer had been transplanted, the aqueous solutions were administered to test the compounds for antineoplastic activity. To be more specific, the MM-46 breast cancer was transplanted to the mice at a ratio of 5.0 x 10^5 cells per mouse and the aqueous solutions were continuously administered (at a dose of 100 mg/kg of body weight) by intraperineal injection for nine days. On elapse of 14 days after the stop of the administration, the size of tumor in the mice was measured. For comparison, mice to which the aqueous solution was not administered and mice to which aminonitroso urea was administered were similarly tested.

MM-46 breast cancer [6] = format: in vivo, female C3H/He mice; conditions: 100 mg/kg, ip × 9
Procedure: The active compounds, I to L, mentioned above were severally dissolved in distilled water to obtain aqueous solutions containing the compounds in a fixed concentration of 10 mg/ml. To female C3H/He mice (five weeks old) to which the MM-46 breast cancer had been transplanted in a ratio of 1.0 x 10^5 cells per mouse, the aqueous solutions were continuously administered at a dose of 100 mg/kg of body weight by intraperitoneal injection for nine days to determine the mice's periods of survival. For comparison, mice to which no aqueous solution was administered and mice to which aminonitrosourea was administered were similarly tested.

[7] = system: human breast cancer (MX-1); assay: Human breast cancer MX-1, SRC method (Examples 29 and 30); format: in vivo, female ICR/cd-1 mice
[8] = 100 mg/kg ip(×5), individual mice, listed as Compound II
[9] = 200 mg/kg ip(×5), individual mice, listed as Compound II

O.O.[NH4+].[NH4+].[NH4+].[NH4+].[NH4+].[NH4+].[O]=[Mo](=[O])([O-])[O][Mo](=[O])(=[O])[O][Mo](=[O])([O-])([O-])[O][Mo](=[O])(=[O])[O][Mo](=[O])([O-])([O-])[O][Mo](=[O])(=[O])[O][Mo](=[O])(=[O])[O-] [Compound D, [NH4]6 [Mo7O24]. 2H20]
Average weight of tumor ([1]; 100 mg/kg): 1790.5±189.3(8) mg | Number of tumorless mice /total number of mice ([1]; 100 mg/kg): 0/8 | Change in body weight ([1]; 100 mg/kg): +1.20 g | T/control ([1]; 100 mg/kg): 0.695 | Average number of days of survival (methyl cholanthrene A [2]; 100 mg/kg): 33.3±2.7(8) days | Number of toxically killed mice/total number of mice (methyl cholanthrene A [2]; 100 mg/kg): 0/8 | Change in body weight (methyl cholanthrene A [2]; 100 mg/kg): +1.20 g | T/control (methyl cholanthrene A [2]; 100 mg/kg): 133.3

[NH3C3H7(iso)]4 (Mo13O40] 1/3 • [Mo12O40H2]2/3 [Compound B]
Average weight of tumor ([1]; 25 mg/kg): 1753.1±132.4(9) mg | Number of tumorless mice /total number of mice ([1]; 25 mg/kg): 0/9 | Change in body weight ([1]; 25 mg/kg): -0.36 g | T/control ([1]; 25 mg/kg): 0.681 | Average number of days of survival (methyl cholanthrene A [2]; 25 mg/kg): 29.3±1.9(9) days | Number of toxically killed mice/total number of mice (methyl cholanthrene A [2]; 25 mg/kg): 0/9 | Change in body weight (methyl cholanthrene A [2]; 25 mg/kg): -0.36 g | T/control (methyl cholanthrene A [2]; 25 mg/kg): 130.4

[NH4]3 H6 [CoMo6O24] • 7H20 [Compound N]
Range of average tumor weight after elapse of 21 days ± SE [3]: 693.6±144.3 (9) | Average weight of tumor ± SE [3]: 448.5±166.0 (10) | T/C ([3]; tumor weight after 14 days): 0.600 | T/C ([3]; tumor weight after 21 days): 0.301 | Average number of days of survival ±SE (methyl cholanthrene A [4]): 39.30±3.73(10)*** * days | ILS (methyl cholanthrene A [4]): 57.0% | Number of mice of no tumor/total number of mice (methyl cholanthrene A [4]): 2/10 | Change in body weight after elapse of 10 days (methyl cholanthrene A [4]): (+)0.56

Na3H6 [CrMo6O24] • 8H20 [Compound O]
Average weight of tumor ± SE [3]: 585.6±166.8 (10) | T/C ([3]; tumor weight after 14 days): 0.784 | T/C ([3]; tumor weight after 21 days): 0.832 | Average number of days of survival ±SE (methyl cholanthrene A [4]): 35.10±3.16(10)*** * days | ILS (methyl cholanthrene A [4]): 41.0% | Number of mice of no tumor/total number of mice (methyl cholanthrene A [4]): 0/10 | Change in body weight after elapse of 10 days (methyl cholanthrene A [4]): (+)1.22

[NH3 (iso)]6 [Mo7O22(O2)2] • 5H20 [Compound J]
Average weight of tumor (MM-46 breast cancer [5]; ip × 9): 385.1±152.3(10 ) mg | Number of tumorless mice /total number of mice (MM-46 breast cancer [5]; ip × 9): 5/10 | T/control (MM-46 breast cancer [5]; ip×9, tumor weight): 0.135 | Average number of days of survival (MM-46 breast cancer [6]): 40.6±4.1(6) days | Average weight of tumor after 14 days (MM-46 breast cancer [6]): 385±152 (8) mg | Ratio of elongation of life (5) (MM-46 breast cancer [6]): 146.2 | T/C ([7]; 100 mg/kg ip(×5)): 63.53* % | T7/To ([7]; 100 mg/kg ip(×5), group mean): 0.876±0.037 | T7/To [7, 8]: 0.913 and 0.792 and 0.840 and 0.962 | Tumor 7 days after transplantation (T7) [7, 8]: 10.5 omu (2×) and 9.5 omu and 12.5 omu | T/C ([7]; 200 mg/kg ip(×5)): 73.02* % | T7/To ([7]; 200 mg/kg ip(×5), group mean): 1.007±0.087 | T7/To [7, 9]: 1.077 and 1.222 and 0.852 and 0.880 | Tumor 7 days after transplantation (T7) [7, 9]: 14.0 omu and 11.0 omu (2×) and 11.5 omu | antineoplastic activity ([7]; result in words): same degree of antineoplastic activity as that of HCFU
